# Measurements reported in patent publication US20260240820A1, “METHOD FOR CONTROLLING MEMBRANE POTENTIAL-DEPENDENT ION CHANNEL THROUGH TYPE I TASTE RECEPTORS (T1RS)” (ION CHAT RESEARCH CORPORATE, priority 2022, published 2026).
# Entries after “also recorded” stand apart in the source; their conditions may differ. Like-named read-outs stand apart in the source and are kept apart here.
# What was measured:
# Nav1.5 = experiment: Patch-clamp (voltage clamp) recording of VGSC current in HEK cells stably expressing Nav1.5
# VGSC = experiment: Patch-clamp recording of VGSC current, cell type not specified or several cell types (summary statements); type: cell-based, human
# [1] = test system: voltage-dependent potassium channel current of SH-SY5Y cells; experiment: Voltage clamp recording of outward potassium current in SH-SY5Y cells; type: cell-based, human; settings: 2 mM
# Excerpt: The inward current represents the transient peak observed immediately after stimulation, while the outward current measures the average value during the last 50 ms of rectangular pulse stimulation.
# [2] = test system: VGSC of SH-SY5Y cells (Nav1.7, Nav1.2, Nav1.3); experiment: Patch-clamp recording of VGSC current in differentiated SH-SY5Y cells; type: cell-based, human; settings: for IC50: read-out: IC50 (VGSC inhibition)
# Excerpt: Furthermore, the inventors focused on the relationship between taste receptors, particularly the sweet or umami receptors containing the T1R3 subunit, which are widely expressed in the brain and nervous system, including the hippocampus and cortex. They used human neuroblastoma cells (SH-SY5Y) that functionally express Nav1.2, Nav1.3, and Nav1.7 (as reported in non-patent literature 8), as well as HEK cells stably expressing Nav1.5 (with endogenous expression of T1R1, T1R2, and T1R3). They observed the effects of taste stimuli on sodium channel activation. By reducing the expression of T1R1 and T1R3 genes using silencing vectors, they confirmed that the effects on sodium channel currents induced by taste stimuli act through taste receptor GPCRs.
# The SH-SY5Y cell culture medium was prepared by mixing DMEM (Sigma-Aldrich) and F-12 (Sigma-Aldrich) in equal proportions. To induce neuronal-like differentiation, the medium contained 1% FBS (BioWest), 5% 40 mM L-Glutamine (Fuji Film), and 1% MEM non-essential amino acids (Wako Pure Chemical Industries). During differentiation, SH-SY5Y cells were cultured for at least 5 days with the addition of 10 μM/ml retinoic acid (Fuji Film). In this document, “SH-SY5Y cells” refer to the SH-SY5Y cell line differentiated into neuronal-like cells.
# [3] = test system: Nav1.5 in T1R3-silenced HEK cells; experiment: VGSC current in HEK Nav1.5 cells with silenced T1R3; type: cell-based, human
# Excerpt: The miRNAs Oligo (Thermofisher) used for silencing were annealed to form double-stranded DNA, which was then linked to the miR RNAi Expression Vector using T4 DNA ligase to create the knockdown vector. Specifically, the procedure followed the miR RNAi Expression Vector Kit manual (BLOCK-i™ Pol II miR RNAi Expression Vector Kit with EmGFP (Catalog number: K493600)).
# Since Aβ25-35 peptide produced similar effects (enhancing VGSC activity, lowering the excitability threshold) as glutamine, it was considered that Aβ25-35 peptide might also act on T1R2/T1R3 receptors like glutamine. Therefore, in this implementation example, we used HEK-Nav1.5 cells with silenced T1R3 and compared the effect of Aβ25-35 peptide on VGSC with that in control HEK-Nav1.5 cells.
# To strengthen these findings, we conducted similar experiments using HEK Nav1.5 cells in which T1R3 expression was silenced (FIG. 22). We measured VGSC currents in T1R3-silenced HEK Nav1.5 cells, applying stimuli every 8 seconds.
# Kv1.2 = experiment: Patch-clamp recording of Kv1.2 potassium current in HEK cells expressing Kv1.2; type: cell-based, human
# Experimental: The effects of Aβ peptides or umami substances on sustained potassium currents (VGKC) in cardiac myocytes can be studied using HEK cells expressing VGKC (such as Kv1.2, Kv3.2, Kv3.3) as well as SH-SY5Y cells expressing endogenous T1R GPCRs. For instance, as shown in the implementation example in (FIG. 36B), Aβ peptides were applied to VGKC-expressing human cultured cells, and VGKC currents were recorded using ramp-like or rectangular voltage waveforms via the patch-clamp technique. This allowed measurement of the changes (inhibition) in VGKC currents caused by Aβ peptides. Similar inhibition studies on VGKC can be conducted using umami substance L-glutamate sodium (MSG) (FIG. 36A).
# As shown in (FIG. 37), Aβ1-42 peptide, unlike Aβ25-35 targeting T1R3, interacts with T1R1 and inhibits VGSC currents (FIGS. 37D, E).
compound,measurement,setting,value
CC(=O)O[C@H]1C(=O)[C@@]2(C)[C@H]([C@H](OC(=O)c3ccccc3)[C@]3(O)C[C@H](OC(=O)[C@H](O)[C@@H](NC(=O)c4ccccc4)c4ccccc4)C(C)=C1C3(C)C)[C@]1(OC(C)=O)CO[C@@H]1C[C@@H]2O [Taxol],Effect on VGSC current,Nav1.5; 0.4 μM to […],VGSC enhancement was observed
same,Effect on VGSC current,"Nav1.5; 0.4 μM to […], listed as Paclitaxel (Taxol)",enhances HEK Nav1.5 cell VGSC
same,Effects on VGSCs,VGSC,Enhances VGSC
NCCCC[C@H](N)C(=O)O [lysine],Effect on VGSC inactivation,VGSC,delay VGSC inactivation
COc1cc2c(c(OC)c1OC)-c1ccc(OC)c(=O)cc1[C@@H](NC(C)=O)CC2 [Colchicine],Effects on VGSCs,VGSC,Enhances VGSC
same,VGSC current amplitude,"VGSC; 2.25 μM, at −40 mV",nearly doubled
COc1ccc(OC(C)C(=O)O)cc1 (stereo not drawn) [Lactisole],Effect on VGSC enhanced by Aβ25-35,Nav1.5; 1-1.5 mM,inhibits the enhancing effect of Aβ25-35 on VGSC; also recorded: recovered to the size of VGSC recorded in the control
same,Effects on VGSCs,VGSC,Inhibition of VGSCs
"Brc1c(Br)c(Br)c2[nH]nnc2c1Br [TBB, 4,5,6,7-tetrabromobenzotriazole]",Effect on VGSC current amplitude,Nav1.5,reduced the amplitude of VGSC current
same,Shift of steady-state inactivation (S-S) curve of VGSC,Nav1.5,shifted gradually to the left; also recorded: significantly shifts in the hyperpolarizing direction
same,Suppression of VGSC current,"Nav1.5; 10 μM, prepulse −80 mV, test pulse −20 mV",almost completely suppressed
same,Suppression of VGSC current,"Nav1.5; 10 μM, prepulse −100 mV",about half suppressed
same,VGSC current unaffected,"Nav1.5; 10 μM, prepulse −120 mV",more than 80%
same,VGSC current inhibition,"Nav1.5; minimum concentration (printed 30 μM), preceding pulse −80 mV",nearly complete VGSC current inhibition
same,Suppression of VGSC current,"Nav1.5; prepulse −120 mV, at the used TBB concentration",about 50%
same,IC50,Nav1.5; read-out: IC50 from difference in Vh of steady-state inactivation curve (Hill equation),12.9 µM
same,IC50,"Nav1.5; read-out: IC50 of inhibition of VGSC current (INa, step −100 mV to −20 mV, Hill plot), prepulse −100 mV",15.8 µM
same,Shift of steady-state inactivation (S-S) curve of VGSC,VGSC,shifted to the hyperpolarizing direction even at control recordings.
"NCCCC(=O)O [GABA, γ-aminobutyric acid]",Effect on VGSC current enhanced by Aβ42/40 (AD-D),Nav1.5; applied after Aβ42/40 (AD-D),no effects similar to β-alanine were observed
"Nc1nc2c(ncn2[C@@H]2O[C@H](COP(=O)(O)O)[C@@H](O)[C@H]2O)c(=O)[nH]1 [GMP, guanosine 5′-monophosphate]",Effect on outward potassium current,[1],peak outward potassium current decreases; also recorded: reduced outward potassium currents
same,Effects on VGSCs,VGSC,enhances VGSC; also recorded: Enhancement of VGSC
same,Effect on VGSC,VGSC; 1 mM,"1 mM GMP, much like L-Gln, primarily enhances VGSC without altering"
same,Leftward shift in the I-V curve,[2],approximately 10 mV
same,Effect on VGSC current,[2]; 2 mM,slight increase in VGSC currents
same,Steady-state inactivation curve,[2]; 2 mM,No change; also recorded: No changes were observed
OC[C@H]1OC(O)[C@H](O)[C@@H](O)[C@@H]1O (stereo partly drawn) [Glucose],Effects on VGSCs,VGSC; <10 mM,Enhancement of VGSC
same,Effects on VGSCs,VGSC; >20 mM,Inhibition of VGSCs
"N[C@@H](CO)C(=O)O [L-Serin, L-serine]",Effects on VGSCs,VGSC,Enhancement of VGSC
same,Effect on VGSC current,VGSC; 2.5 mM,Enhances VGSC currentat 2.5 mM
CC(C)(Cc1ccc2ccccc2c1)NC[C@@H](O)COc1cccc(Cl)c1C#N [NPS-2143],Effect on VGSC current,Nav1.5; 5 μM,Inhibitory effect; also recorded: slowly inhibited
same,Effect on leak (baseline) current,Nav1.5; when VGSC inhibition nearly complete,non-selective leak currents
same,Effect on VGSC in T1R3-silenced cells,[3],no VGSC inhibitory effect was observed
same,Effects on VGSCs,VGSC,inhibited human VGSC; also recorded: Inhibition of VGSCs
same,Required concentration for VGSC inhibition,VGSC; HEK Nav1.5 and SH-SY5Y,5 µM
"CC(Oc1ccc(Cl)cc1Cl)C(=O)O (stereo not drawn) [dichlorprop, 2-(2,4-dichlorophenoxy) propanoic acid]",Effect on VGSC current amplitude,Nav1.5,reduced the amplitude of VGSC current
same,Vh of steady-state inactivation curve,Nav1.5; 500 μM,shifted to a more negative potential
same,Slope of steady-state inactivation curve,"Nav1.5; Control vs 300 and 500 μM, t-test",no significant difference
same,Effect on S-S curve of VGSC in the presence of Taxol,Nav1.5; in the presence of Taxol,shifted the S-S curve of VGSC in the hyperpolarizing direction
same,Rank among sweet taste inhibitors in inhibiting Na+ channels,VGSC; dichlorprop>>clofibrate>lactisole,most effective inhibitor of sodium channels at the lowest concentration; also recorded: most potent
same,Effects on VGSCs,VGSC; listed as DichrolProp,Inhibition of VGSCs
same,IC50,[2]; prepulse −80 mV,17.3 µM
same,IC50,[2]; prepulse/holding voltage −60 mV,9 µM
OC[C@H]1O[C@@](CO)(O[C@H]2O[C@H](CO)[C@@H](O)[C@H](O)[C@H]2O)[C@@H](O)[C@@H]1O [Sucrose],Effects on VGSCs,VGSC,Inhibition of VGSCs
N[C@@H](CC(=O)O)C(=O)O [aspartic acid],Effect on VGSC inactivation,VGSC,delay VGSC inactivation
C/C1=C/C(=O)O[C@@H]2C[C@@H](CC[C@H](C)/C=C\C=C\CC1)O[C@@](O)([C@@H]1CSC(=O)N1)C2 [Latrunculin A],Effects on VGSCs,VGSC,reduces VGSC
same,Shift of steady-state inactivation (S-S) curve of VGSC,VGSC,shifting the S-S curve toward hyperpolarization
same,Effect on VGSC current,VGSC; 12.6 μM,shifted the VGSC current toward hyperpolarization and inhibited it
same,Effect on VGSC current,"VGSC; 12.6 μM, listed as LatA",significantly inhibits VGSC current
"NC(=O)CC[C@H](N)C(=O)O [L-Gln, L-glutamine]",Effect on voltage gated K+ channel (Kv1.2) current,Kv1.2,Inhibition of Voltage gated
same,Effects on VGSCs,VGSC,Enhancement of VGSC; also recorded: Delay in VGSC inactivation
same,Increase in VGSC current,"VGSC; 0.5-1 mM, SH-SY5Y (n=8) and HEK-Nav1.5 (n=4)",10-20%
same,Effect on VGSC current,VGSC; concentrations higher than 1 mM,500 uM and 1 mM but not at higher
same,Effect on VGSC current,"VGSC; concentrations higher than 1 mM, listed as glutamine",No further enhancement
same,Effect on VGSC inward current,[2]; 500 μM,enhancement of transient downward VGSC current; also recorded: amplification of VGSC inward current
